Assay results as given in patent US20260337125A1, “RADIOLABELED TYROSINE DERIVATIVE AND APPLICATION THEREOF” (Osaka University, priority 2022, published 2026).

Legend:
[1] = TLC analysis of stability after purification; type: physicochemical; settings: 24 hours after purification, in sodium ascorbate aqueous solution (final concentration 1%)
Experimental: The crude product solution (1 μL) was analyzed by thin-layer chromatography (TLC). The sample was spotted on a thin-layer plate (silica gel 60F254), and a mixed solvent of acetonitrile/water (2/1) was used as a developing solvent. The thin-layer plate was exposed to an imaging plate (BAS IP MS 2025E, GE Healthcare) for about 15 min, and then analyzed by a bioimage analyzer (Tyhoon™ FLA-7000, Cytiva). The results are shown in FIG. 2. ^211At-AAMT-OMe in the crude product solution was detected at Rf 0.80, and the radiochemical yield (RCY) was 81.3%.
(§1) The crude product solution was injected into an HLB column (Oasis, WAT-186005125) equilibrated with sterile distilled water (1 mL) to capture the target product in the cartridge, and sterile distilled water was passed through the cartridge to elute impurities. Next, 30% ethanol solution (500 μL) was passed through the cartridge to elute the target product into sodium ascorbate aqueous solution (500 μL, final concentration 1%), thus obtaining the purified product. The radiochemical yield and radiochemical purity of the purified product were 81% and 98%, respectively.
Before purification, immediately after production, 3 hours after production, and 24 hours after production, ^211At-AAMT-OMe was analyzed by thin-layer chromatography (TLC) in the same manner as described above.
as §1, with “product. This purified product was analyzed by thin-layer chromatography (TLC) in the same manner as described above.” for “product.”, “79.6%” for “81%”, “99.9%,” for “98%,”
24 hours after production, (R)-^211At-AAMT-OMe was analyzed by thin-layer chromatography (TLC) in the same manner as described above.
as §1, with “product. This purified product was analyzed by thin-layer chromatography (TLC) in the same manner as described above.” for “product.”, “75.9%” for “81%”, “99.27%,” for “98%,”
24 hours after production, ^211At-AAMT-OEt was analyzed by thin-layer chromatography (TLC) in the same manner as described above.
The crude product solution was injected into an HLB column (Oasis, WAT-186005125) equilibrated with sterile distilled water (1 mL) to capture the target product in the cartridge, and sterile distilled water was passed through the cartridge to elute impurities. […] This purified product was analyzed by thin-layer chromatography (TLC) in the same manner as described above. […]
24 hours after production, ^211At-AAMT-OPr was analyzed by thin-layer chromatography (TLC) in the same manner as described above. […]

[2] = system: CDDP-resistant A549 (A549 CDDP-r); test: Cell viability of CDDP-resistant A549 (A549 CDDP-r) with CDDP; type: cell-based, human; settings: CDDP 100 μg/mL
Experimental: Cisplatin (CDDP) was added to a human lung cancer cell line, A549 at an initial concentration of 1 μg/mL. After 3 days, dead cells were removed, and CDDP was again added. Cells that grew like A549 even in the presence of CDDP were isolated and maintained for 3 months while gradually increasing the concentration of CDDP in a culture medium.

[3] = system: gemcitabine-resistant human pancreatic cancer cell line, PANC1 (PANC1 Gem-r); test: Cell viability of Gemcitabine-resistant PANC1 (PANC1 Gem-r) with gemcitabine; type: cell-based; settings: gemcitabine 30 μg/mL
Experimental: Gemcitabine (Gem) was added to a human pancreatic cancer cell line, PANC1 at an initial concentration of 100 ng/mL. After 3 days, dead cells were removed, and gemcitabine was again added. Cells that grew like a human pancreatic cancer cell line, PANC1 even in the presence of gemcitabine were isolated and maintained for 3 months while gradually increasing the concentration of gemcitabine in a culture medium.

[4] = system: PANC1; test: Cellular uptake test (Using PANC1); type: cell-based, human; settings: for uptake speed: PANC1 cells, uptake level immediately after addition
Experimental: • Cells to be used: PANC1 • Culture medium to be used: D-MEM (containing 10% FBS, 1% P/S)
(§2) Two days before a test day, a cell suspension was prepared in such a manner that the concentration of predetermined cells was 1×10^5 cells/mL in the same manner as in Test Example 1. The cell suspension was seeded in a 24-well multiculture plate at a volume of 0.5 mL per well. On the day of the test, cultures were confirmed to be subconfluent (which refers to a state where 70-80% of the well is covered in density). The cells were washed twice with warmed PBS(-) Buffer (166-23555, FUJIFILM Wako Pure Chemical Corporation), the culture medium was replaced with HBSS(-) Buffer (085-09355, FUJIFILM Wako Pure Chemical Corporation), and the plate was left to stand in an incubator (MINIcell-35, WakenBtech Co., Ltd) until an RI addition test.
(§3) ^211At-AAMT-OMe, ^211At-AAMT-OEt, ^211At-AAMT-OPr, or ^211At-AAMT was added to the prepared cells at 10 μL/well. BCH (LAT1 inhibitor, 20 mM) or unlabeled AMT (α-methyl tyrosine, 1 μg/mL) was previously (15 minutes before) added ([…]). The cells were cultured (CO2 5%, 37 °C), and after 30 minutes, the liquid was removed by suction using an aspirator. The cells were washed twice with PBS(-). The cells were lysed by adding 0.1N NaOH to obtain a lysate, and the radioactivity of the lysate was measured using a γ counter. After the radioactivity measurement, the lysate was loaded into a 96-well plate at a volume of 10 μL per well, the protein amount was measured by the BCA method, and the number of cells was corrected based on the protein amount. Absorbance was measured by MultiScanFC (Thermo Fisher). The uptake level of ^211At-AAMT-OMe, ^211At-AAMT-OEt, ^211-At-AAMT-OPr, or ^211At-AAMT into the cells (number of radioactivity counts/protein amount) was calculated.

[5] = Measurement of accumulated amounts of 211At-labeled compounds in PANC1 tumor-bearing mice; type: in vivo, human (PANC1) in Balb/c-nu/nu mice; settings: tumor, iv, 0.1 MBq/animal, 0.1 MBq/0.2 mL per mouse, tail vein, read-out: tumor accumulation; for tissue uptake at 10 min: 10 minutes after administration; for tissue uptake at 1 h: 1 hour after administration
Experimental: (§4) Radiation doses before and after the administration were measured, and a difference between them was defined as an injected dose (ID). Ten minutes and one hour after administration, the mice were anesthetized by isoflurane inhalation, the tumors were isolated by autopsy in chronological order, and their radiation doses and weights were measured using a gamma counter (2480 Wizard^2, PerkinElmer) and a semimicro scale (Shimadzu Corporation, readability 10 μg), respectively. For comparison between accumulated amounts, accumulated amounts per unit amount (% ID/g) were calculated.
(§5) In Table 1, the amounts of the ^211At-labeled compounds accumulated in tumors of the PANC1 tumor-bearing models (% ID/g) are shown. It should be noted that in Table 1, “OMe” is ^211At-AAMT-OMe, “OEt” is ^211At-AAMT-OEt, “OPr” is ^211At-AAMT-OPr, and “OH” is ^211At-AAMT.

[6] = system: PANC1 tumor; test: as above; type: in vivo, human (PANC1) in Balb/c-nu/nu mice; settings: for accumulation in the tumor sites compared to 211At-AAMT: 10 minutes and 1 hour after administration, tail vein; for retention at tumor sites: compared to 211At-AAMT
Experimental: as §4, §5

[7] = system: human pancreatic cancer cell line (PANC1); type: in vivo, human (PANC1) in Balb/c-nu/nu mice; settings: 1 MBq/0.2 mL per mouse, tail vein
Description: The experiment was terminated 21 days after administration.

[8] = molecular target: HEK293-hLAT1 (Homo sapiens, UniProt Q01650); test: Cellular uptake test (Using HEK293); type: cell-based; settings: inhibitor added 15 minutes before; BCH 20 mM or unlabeled AMT 1 μg/mL
Experimental: • Cells to be Used: HEK293-Mock, HEK293-hLAT1, HEK293-hLAT2 (HEK293: Human Embryonic Kidney cells 293) • Culture medium to be used: E-MEM (containing 10% FBS, 1% P/S, 1% NEAA)
as §2, with “cells/mL.” for “cells/mL in the same manner as in Test Example 1.”
as §3, with “^211At-AAMT-OMe” for “^211At-AAMT-OMe, ^211At-AAMT-OEt, ^211At-AAMT-OPr,”, “^211At-AAMT-OMe” for “^211At-AAMT-OMe, ^211At-AAMT-OEt, ^211-At-AAMT-OPr,”

[9] = up to 21 days after administration

Sequence of HEK293-hLAT1 (Q01650 whole entry): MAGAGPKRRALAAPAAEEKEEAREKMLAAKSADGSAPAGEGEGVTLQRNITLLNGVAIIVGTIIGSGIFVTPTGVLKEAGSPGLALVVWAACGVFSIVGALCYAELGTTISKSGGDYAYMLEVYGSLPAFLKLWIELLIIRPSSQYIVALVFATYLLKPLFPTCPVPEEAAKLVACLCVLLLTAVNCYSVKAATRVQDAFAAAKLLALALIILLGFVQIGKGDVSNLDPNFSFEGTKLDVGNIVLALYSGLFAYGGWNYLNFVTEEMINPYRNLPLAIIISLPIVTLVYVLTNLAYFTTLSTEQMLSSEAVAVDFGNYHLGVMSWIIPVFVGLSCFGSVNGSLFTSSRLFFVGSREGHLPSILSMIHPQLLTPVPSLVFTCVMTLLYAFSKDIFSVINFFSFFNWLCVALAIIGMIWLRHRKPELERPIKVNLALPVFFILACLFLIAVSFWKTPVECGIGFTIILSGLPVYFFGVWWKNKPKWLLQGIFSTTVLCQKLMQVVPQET
Sequence of HEK293-hLAT1 (P08195 102-630 partner): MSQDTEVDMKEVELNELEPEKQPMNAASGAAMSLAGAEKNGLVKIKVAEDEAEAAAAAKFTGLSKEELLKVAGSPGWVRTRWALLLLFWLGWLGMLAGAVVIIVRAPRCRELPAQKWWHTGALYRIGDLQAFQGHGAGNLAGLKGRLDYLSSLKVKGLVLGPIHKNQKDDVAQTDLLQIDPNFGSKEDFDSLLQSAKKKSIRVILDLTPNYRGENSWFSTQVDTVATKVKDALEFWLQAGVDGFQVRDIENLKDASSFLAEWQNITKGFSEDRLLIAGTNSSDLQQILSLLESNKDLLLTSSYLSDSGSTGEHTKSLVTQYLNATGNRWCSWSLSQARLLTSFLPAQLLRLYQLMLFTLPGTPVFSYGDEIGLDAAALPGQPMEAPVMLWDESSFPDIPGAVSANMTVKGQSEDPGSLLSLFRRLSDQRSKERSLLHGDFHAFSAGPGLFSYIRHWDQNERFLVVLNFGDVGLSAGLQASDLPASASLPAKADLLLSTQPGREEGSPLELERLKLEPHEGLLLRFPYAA

In the case of `COc1ccc(C[C@@](C)(N)C(=O)O)cc1[At]` [(R)-^211At-AAMT-OMe, (R)-3-astato(^211At)—O-methyl-α-methyltyrosine], the “decomposition by TLC” value [1] is reported as “no decomposition”.
With `[NH2][Pt]([NH2])([Cl])[Cl]` [CDDP, Cisplatin] the cell viability [2] was “still alive even at 100 μg/mL”.
In the case of `Nc1ccn([C@@H]2O[C@H](CO)[C@@H](O)C2(F)F)c(=O)n1` [gemcitabine, Gemcitabine], the cell viability [3] is reported as “still alive even at 30 μg/mL”.
For `CCCOc1ccc(C[C@](C)(N)C(=O)O)cc1[At]` [^211At-AAMT-OPr, (S)-3-astato(^211At)—O-propyl-α-methyltyrosine], the “uptake level into cells (number of radioactivity counts/protein amount)” value [4] was “comparable or superior”, the uptake speed [4] was “comparable or superior” and the “decomposition by TLC” value [1] was “no decomposition”. For the same compound, the tissue uptake at 10 min [5] was 5.91 %ID/g, the tissue uptake at 1 h [5] was 9.45 %ID/g and the “accumulation in the tumor sites compared to 211At-AAMT” value (shortened to “accumulation … compared to 211At-AAMT”) [6] was “more highly accumulated in the tumor sites than ^211At-AAMT”. For the same compound, the “tumor accumulation, ranking” value ([6]; 1 hour after administration) was “most highly accumulated 1 hour after administration” and the “retention at tumor sites” value [6] was “superior retention at tumor sites compared to ^211At-AAMT”.
For `COc1cc(C[C@](C)(N)C(=O)O)ccc1[At]` [^211At-AAMPhe-OMe, (S)-α-methyl-4-astato(^211At)-3-methoxyphenylalanine], the “decomposition by TLC” value [1] was “no decomposition”, the tissue uptake at 10 min [5] was 3.77 %ID/g and the tissue uptake at 1 h [5] was 6.38 %ID/g. For the same compound, the “accumulation … compared to 211At-AAMT” value [6] was “more highly accumulated in the tumor sites than ^211At-AAMT”.
In the case of `CCOc1ccc(C[C@](C)(N)C(=O)O)cc1[At]` [^211At-AAMT-OEt, (S)-3-astato(^211At)—O-ethyl-α-methyltyrosine], the “uptake level into cells (number of radioactivity counts/protein amount)” value [4] is reported as “comparable or superior”, the uptake speed [4] is reported as “comparable or superior” and the apparent toxicity ([7]; 21 days) is reported as “apparent toxicity induced by their administration was not observed”. The “lesions other than tumor at autopsy” value ([7]; 21 days) was “lesions other than tumor were not observed”, the mouse body weight [7, 9] was “gently increased” and the “tumor growth inhibiting effect” value [7, 9] was “comparable to that of the ^211At-AAMT-OMe administration group”. For the same compound, the “decomposition by TLC” value [1] was “no decomposition”, the tissue uptake at 10 min [5] was 4.21 %ID/g and the tissue uptake at 1 h [5] was 3.59 %ID/g. The “accumulation … compared to 211At-AAMT” value [6] was “more highly accumulated in the tumor sites than ^211At-AAMT” and the “retention at tumor sites” value [6] was “superior retention at tumor sites compared to ^211At-AAMT”.
In the case of `NC1(C(=O)O)CC2CCC1C2` (stereo not shown) [BCH, 2-aminobicyclo[2,2,1]heptane-2-carboxylic acid, reference compound], the “inhibition of uptake of 211At-AAMT-OMe into HEK293-hLAT1 cells” value [8] is reported as “significantly inhibited”.
For `C[C@](N)(Cc1ccc(O)cc1)C(=O)O` [AMT, α-methyl tyrosine, reference compound], the “inhibition of uptake of 211At-AAMT-OMe into HEK293-hLAT1 cells” value [8] was “significantly inhibited”.
